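Assay format: 96-well plates, 48-hour exposure. The concentration for 50% growth inhibition is given as GI50.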 Activity calls are given as the source filed them. No stated cut-off is given here; in the data, active = GI50 up to about 1.1 µM and inactive = higher.
What was measured:
Assay in all cases: growth of human tumour cells (NCI), 48 h
RXF 631 = tested on: RXF 631
LXFL 529 = tested on: LXFL 529
DU-145 = tested on: DU-145
MDA-MB-435 = tested on: MDA-MB-435
T47D = tested on: T47D
MDA-N = tested on: MDA-N
Hs-578T = tested on: Hs-578T
MDA-MB-231 = tested on: MDA-MB-231

Measured: GI50

CCOC(=O)c1ncoc1[C@H]1COC(C)(C)O1
inactive: RXF 631 > 100 µM | LXFL 529 > 100 µM

CCOC1=NC(C(F)(F)F)(C(F)(F)F)N=C(N2CCOCC2)O1
inactive: DU-145 > 100 µM | MDA-MB-435 > 100 µM | T47D 27 µM | MDA-N > 100 µM | Hs-578T > 100 µM | MDA-MB-231 > 100 µM

CCOc1ccc2nc(-c3ccc(O)cc3)sc2c1
inactive: DU-145 > 100 µM | MDA-MB-435 > 100 µM | MDA-N > 100 µM | MDA-MB-231 > 100 µM

O=C1c2cc3c(cc2[C@@H]2C(O)[C@H]4O[C@H]4C4CCN1C42)OCO3 (some centres not stated)
inactive: LXFL 529 > 37.5 µM

Cc1ccc(NC(=O)CC/C(CC(=O)C(C)(C)C)=N/NC(=O)c2cc3ccccc3cc2O)cc1C
inactive: RXF 631 44.1 µM | LXFL 529 35.2 µM

COc1ccc(C2=N/C(=C\c3ccccc3)C(=O)O2)cc1
inactive: MDA-MB-435 > 100 µM | Hs-578T 40.8 µM

CO/C(=N\N=C(/c1ccccc1)C(F)(F)F)c1ccncc1
inactive: DU-145 44.5 µM | MDA-MB-435 18.8 µM | T47D 35.2 µM | Hs-578T 49.2 µM | MDA-MB-231 39.3 µM

COc1cccc(N2C(=O)CSC2c2c[nH]c3ccccc23)c1 (configuration not stated)
inactive: DU-145 > 100 µM | MDA-MB-435 > 100 µM | T47D > 100 µM | MDA-N > 100 µM | MDA-MB-231 > 100 µM
